Source: the OligoGym collection
HELM strings list units from the 5' end as sugar, base in round brackets, then linkage (d deoxyribose, r ribose, m 2'-O-methyl, p phosphodiester). Strings are as the collection lists them; they lack the last nucleoside at the 3' end of the tested compound. [moe] = 2'-O-(2-methoxyethyl) (MOE); [sp] = phosphorothioate linkage; [m5C] = 5-methylcytosine

biological target: UBE3A-ATS; experiment: mouse, dose not given; conditions: ASO

Q: With “RNA1{[moe](T)[sp].[moe]([m5C])p.[moe](A)p.[moe]([m5C])p.[moe]([m5C])p.[moe](A)p.d(T)[sp].d(T)[sp].d(T)[sp].d(T)[sp].d(G)[sp].d(A)[sp].d([m5C])[sp].d([m5C])[sp].d(T)[sp].d(T)[sp].[moe]([m5C])p.[moe](T)[sp].[moe](T)}$$$$ (last 3' nucleoside missing)” as the substance, how does the 3 h FOB score read?
A: 1 score 0-7

Q: With “RNA1{[moe](T)[sp].[moe]([m5C])p.[moe](A)p.[moe]([m5C])p.[moe]([m5C])p.d(A)[sp].d(T)[sp].d(T)[sp].d(T)[sp].d(T)[sp].d(G)[sp].d(A)[sp].d([m5C])[sp].d([m5C])[sp].d(T)[sp].[moe](T)p.[moe]([m5C])p.[moe](T)[sp].[moe](T)}$$$$ (last 3' nucleoside missing)” as the substance, how does the 3 h FOB score read?
A: 1 score 0-7

Q: For “RNA1{[moe](T)[sp].[moe]([m5C])p.[moe](A)p.[moe]([m5C])p.d([m5C])[sp].d(A)[sp].d(T)[sp].d(T)[sp].d(T)[sp].d(T)[sp].d(G)[sp].d(A)[sp].d([m5C])[sp].d([m5C])[sp].[moe](T)p.[moe](T)p.[moe]([m5C])p.[moe](T)[sp].[moe](T)}$$$$ (last 3' nucleoside missing)”, which 3 h FOB score is on record?
A: 2 score 0-7

Q: Which 3 h FOB score does the source give for “RNA1{[moe](T)[sp].[moe]([m5C])p.[moe](G)p.[moe](G)p.[moe](A)p.d(T)[sp].d(A)[sp].d(T)[sp].d(A)[sp].d(G)[sp].d([m5C])[sp].d(T)[sp].d(T)[sp].d(T)[sp].d(T)[sp].[moe](A)p.[moe]([m5C])p.[moe](A)[sp].[moe](T)}$$$$ (last 3' nucleoside missing)” here?
A: 1 score 0-7

Q: Which 3 h FOB score does the source give for “RNA1{[moe](T)[sp].[moe]([m5C])p.[moe](T)p.[moe](G)p.[moe](G)p.d(A)[sp].d(A)[sp].d(T)[sp].d([m5C])[sp].d(T)[sp].d(T)[sp].d(G)[sp].d(T)[sp].d(A)[sp].d(G)[sp].[moe](A)p.[moe](G)p.[moe](G)[sp].[moe](A)}$$$$ (last 3' nucleoside missing)” here?
A: 2.7 score 0-7

Q: With “RNA1{[moe](T)[sp].[moe]([m5C])p.[moe](T)p.[moe](G)p.[moe]([m5C])p.[moe](T)p.d([m5C])[sp].d(A)[sp].d(G)[sp].d(T)[sp].d(T)[sp].d(A)[sp].d(G)[sp].d(G)[sp].d(T)[sp].d(T)[sp].[moe](A)p.[moe](G)[sp].[moe](T)}$$$$ (last 3' nucleoside missing)” as the substance, how does the 3 h FOB score read?
A: 4 score 0-7

Q: “RNA1{[moe](T)[sp].[moe]([m5C])p.[moe](T)p.[moe](G)p.[moe]([m5C])p.d(T)[sp].d(A)[sp].d(T)[sp].d(T)[sp].d(G)[sp].d(T)[sp].d(T)[sp].d(G)[sp].d(G)[sp].d(A)[sp].[moe](T)p.[moe](A)p.[moe](T)[sp].[moe]([m5C])}$$$$ (last 3' nucleoside missing)” was tested. Which 3 h FOB score did it give?
A: 6.5 score 0-7

Q: Which 3 h FOB score does the source give for “RNA1{[moe](T)[sp].[moe]([m5C])p.[moe](T)p.[moe](G)p.[moe]([m5C])p.d(T)[sp].d([m5C])[sp].d(A)[sp].d(G)[sp].d(T)[sp].d(T)[sp].d(A)[sp].d(G)[sp].d(G)[sp].d(T)[sp].[moe](T)p.[moe](A)p.[moe](G)[sp].[moe](T)}$$$$ (last 3' nucleoside missing)” here?
A: 7 score 0-7

Q: Which 3 h FOB score does the source give for “RNA1{[moe](T)[sp].[moe]([m5C])p.[moe](T)p.[moe](G)p.d([m5C])[sp].d(T)[sp].d([m5C])[sp].d(A)[sp].d(G)[sp].d(T)[sp].d(T)[sp].d(A)[sp].d(G)[sp].d(G)[sp].[moe](T)p.[moe](T)p.[moe](A)p.[moe](G)[sp].[moe](T)}$$$$ (last 3' nucleoside missing)” here?
A: 4 score 0-7

Q: With “RNA1{[moe](T)[sp].[moe]([m5C])p.[moe](T)p.[moe](T)p.[moe](A)p.d([m5C])[sp].d(T)[sp].d(G)[sp].d(A)[sp].d(T)[sp].d(T)[sp].d([m5C])[sp].d(A)[sp].d(G)[sp].d([m5C])[sp].[moe]([m5C])p.[moe](A)p.[moe](T)[sp].[moe](T)}$$$$ (last 3' nucleoside missing)” as the substance, how does the 3 h FOB score read?
A: 4 score 0-7
